# From patent US20070073039A1, “Peptides that inhibit viral infections” (priority 2005, published 2007)
# System: HCV
# Experiment: HCV focus reduction assay
# Assay type: cell-based, Hepatitis C virus (JFH-1)
# Conditions: 72 h; working concentration 18.4-27.5 μM per peptide; Mock 51
# Method: To identify peptides that display antiviral activity against HCV infection, the peptide library was screened by an HCV focus reduction assay. The peptides were constituted in 100% DMSO at a final concentration 10 mg/mL, and stored in −20° C. The peptide stock solution was diluted 1:200 to a final concentration approximately 20 μM in complete DMEM growth medium containing 50 focus forming units (ffu) of HCV. The virus-peptide mixture was transferred to Huh-7.5.1 cells at a density of 8000 cells per well in a 96-well plate. After adsorption for 4 hours at 37° C., the inoculum was removed. The cells were washed 2 times, overlaid with 120 μL fresh growth medium and incubated at 37° C. After 3 days of culture, the cells were fixed with paraformaldehyde and immunostained with antibody against HCV nonstructural protein NS5A. The numbers of HCV foci were counted under fluorescent microscopy and the result is expressed as percentage (%) of mock with no peptide treatment but containing solvent 0.5% DMSO.
# To determine whether the antiviral activity of peptide 1 is dependent on its primary amino acid sequence, four derivative peptides from peptide 1 were synthesized to a purity >95%. The four derivatives having the same composition of amino acids included (1) the reversed the sequence of peptide 1 (also called retro-peptide); (2) scrambled hydrophobic amino acids; (3) scrambled hydrophilic amino acids; and (4) a derivative in which the aspartic acid residues (D) were replaced with proline residues (P). The antiviral activity of the peptides was examined by HCV focus reduction assay at three peptide concentrations: 18 μM, 6 μM and 2 μM, as described above.
row,Sequence,Focus Reduction (72 h)
1,SWLRDIWDWICEVLSD [^C-16mer],0
2,SWLRDIWDWICE [^C-12mer],107

# Same assay, conditions: HCV foci; 1/3 of final concentration (6 μM)
row,Sequence,1/3 diluted
1,SIWRDWVDLICEFLSDWK (OTHER INFORMATION: A synthetic peptide),31 ± 2
2,SWLRPIWPWICEVLSDFK (OTHER INFORMATION: A synthetic peptide),21 ± 8
3,KFDSLVECIWDWIDRLWS (OTHER INFORMATION: A synthetic peptide),50 ± 7
4,KWLCRIWSWISDVLDDFE (OTHER INFORMATION: A synthetic peptide),8 ± 6

# Same assay, conditions: HCV foci; 1/9 of final concentration (2 μM)
row,Sequence,1/9 diluted
1,SIWRDWVDLICEFLSDWK (OTHER INFORMATION: A synthetic peptide),16 ± 4
2,SWLRPIWPWICEVLSDFK (OTHER INFORMATION: A synthetic peptide),41 ± 2
3,KFDSLVECIWDWIDRLWS (OTHER INFORMATION: A synthetic peptide),31 ± 3
4,KWLCRIWSWISDVLDDFE (OTHER INFORMATION: A synthetic peptide),15 ± 6

# Same assay, conditions: HCV foci; final concentration 17-20 μM; MOCK 53 ± 4
row,Sequence,No dilution
1,SIWRDWVDLICEFLSDWK (OTHER INFORMATION: A synthetic peptide),0 ± 0
2,SWLRPIWPWICEVLSDFK (OTHER INFORMATION: A synthetic peptide),9 ± 3
3,KFDSLVECIWDWIDRLWS (OTHER INFORMATION: A synthetic peptide),1 ± 1
4,KWLCRIWSWISDVLDDFE (OTHER INFORMATION: A synthetic peptide),0 ± 0

# Same assay, conditions: cell culture model of HCV infection
row,Sequence,Inhibition of HCV infection
1,GSATLCSALYVGDLCGSV [Peptide 5],strongly inhibit HCV infection
2,YLYGVGSSIASWAIKWEY [Peptide 11],strongly inhibit HCV infection
3,WMMLLISQAEAALENLVI [Peptide 4],strongly inhibit HCV infection
4,DTEDVVCCSMSYSW [Peptide 7741],strongly inhibit HCV infection
5,TLVFDITKLLLAIFGPLW [Peptide 6],strongly inhibit HCV infection

# Same assay, conditions: inhibition of HCV infection; peptide approximately 20 μM; Huh-7.5.1 cells; 3 days
row,Sequence,Fold Inhibition [fold]
1,SIASWAIKWEYVVLLFLL [Peptide 7027],2.5
2,YVSGMTTDNLKCPCQIPS [Peptide 7226],2.6
3,DQLEQALNCEIYGACYSI [Peptide 7334],3.5
4,GSATLCSALYVGDLCGSV [Peptide 5],100.0
5,WMNSTGFTKVCGAPPCVI [Peptide 7005],6.0
6,YLYGVGSSIASWAIKWEY [Peptide 11],42.0
7,GAVYAFYGMWPLLLLLLA [Peptide 7038],5.3
8,LELITSCSSNVSVAHDGA [Peptide 7323],2.3
9,LEFWEGVFTGLTHIDAHF [Peptide 7148],3.0
10,WMMLLISQAEAALENLVI [Peptide 4],21.0
11,WVLVGGVLAALAAYCLST [Peptide 7163],3.8
12,DTEDVVCCSMSYSW [Peptide 7741],42.0
13,NCNESLNTGWLAGLFYQH [Peptide 6987],2.8
14,GWFTAGYSGGDIYHSVSH [Peptide 7350],2.3
15,HPITKYIMTCMSADLEVV [Peptide 7160],2.6
16,TLVFDITKLLLAIFGPLW [Peptide 6],100.0
17,DDLVVICESAGVQEDAAS [Peptide 7317],3.8
18,GMWPLLLLLLALPQRAYA [Peptide 7039],3.2
19,PCVIGGVGNNTLLCPTDC [Peptide 7007],3.0
20,GPISYANGSGLDERPYCW [Peptide 6993],4.2
21,RAAGLQDCTMLVCGDDLV [Peptide 7315],2.0
22,QPGYPWPLYGNEGCGWAG [Peptide 6937],2.0
23,TSTWVLVGGVLAAL (VTSTWVLVGGVLAAL) [Peptide 7729],8.4
24,LASCRRLTDFAQGWGPIS [Peptide 6991],2.8
25,VSTATQTFLATCIN [Peptide 7725],2.5

row,Sequence,Fold Inhibition [fold]
1,HINSTALNCNESLNTGWL [Peptide 6986],2.5
2,MYVGGVEHRLEAACNWTR [Peptide 7016],6.0
3,LAALAAYCLSTGCVV [Peptide 7730],4.7
4,HTPVNSWLGNIIMFAPTL [Peptide 7329],2.1
5,SSGADTEDVVCCSMS [Peptide 7740],2.3
6,GVPPLRAWRHRARSVRAR [Peptide 7342],2.0
7,QIVGGVYLLPRRGPRLGV [Peptide 6930],2.2
8,KWEYVVLLFLLLADARVC [Peptide 7028],2.1
9,DAILHTPGCVPCVREGNA [Peptide 6957],4.7
10,GSGLDERPYCWHYPPRPC [Peptide 6994],3.0
11,TDFAQGWGPISYANGSGL [Peptide 6992],3.2
12,DVVCCSMSYSWTGAL [Peptide 7742],4.2
13,PAILSPGALVVGVVCAAI [Peptide 7195],2.3
14,GWAGWLLSPRGSRPSWGP [Peptide 6939],2.2
15,DSSVLCECYDAGCAWYEL [Peptide 7142],2.5
16,AYMNTPGLPVCQDHLEFW [Peptide 7146],2.5
17,WRHRARSVRARLLSRGGR [Peptide 7343],2.1
18,MWNFISGIQYLAGLSTLP [Peptide 7178],2.3
19,TVTESDIRTEEAIYQCCD [Peptide 7304],2.8
20,APTLWARMILMTHFFSVL [Peptide 7331],2.2
21,GNTLTCYIKARAACRAAG [Peptide 7313],2.2
22,EVFWAKHMWNFISGIQYL [Peptide 7177],4.2
23,LPTTQLRRHIDLLVGSAT [Peptide 6962],2.6
24,RHIDLLVGSATLCSALYV [Peptide 6963],3.2

# Same assay, conditions: number of HCV foci as % of mock (0.5% DMSO); peptide approximately 20 μM; Huh-7.5.1 cells; 3 days
row,Sequence,% of Mock [%]
1,SIASWAIKWEYVVLLFLL [Peptide 7027],40.5
2,YVSGMTTDNLKCPCQIPS [Peptide 7226],38.1
3,DQLEQALNCEIYGACYSI [Peptide 7334],28.6
4,GSATLCSALYVGDLCGSV [Peptide 5],1.0
5,WMNSTGFTKVCGAPPCVI [Peptide 7005],16.7
6,YLYGVGSSIASWAIKWEY [Peptide 11],2.4
7,GAVYAFYGMWPLLLLLLA [Peptide 7038],19.0
8,LELITSCSSNVSVAHDGA [Peptide 7323],42.9
9,LEFWEGVFTGLTHIDAHF [Peptide 7148],33.3
10,WMMLLISQAEAALENLVI [Peptide 4],4.8
11,WVLVGGVLAALAAYCLST [Peptide 7163],26.2
12,DTEDVVCCSMSYSW [Peptide 7741],2.4
13,NCNESLNTGWLAGLFYQH [Peptide 6987],35.7
14,GWFTAGYSGGDIYHSVSH [Peptide 7350],42.9
15,HPITKYIMTCMSADLEVV [Peptide 7160],38.1
16,TLVFDITKLLLAIFGPLW [Peptide 6],1.0
17,DDLVVICESAGVQEDAAS [Peptide 7317],26.2
18,GMWPLLLLLLALPQRAYA [Peptide 7039],31.0
19,PCVIGGVGNNTLLCPTDC [Peptide 7007],33.3
20,GPISYANGSGLDERPYCW [Peptide 6993],23.8
21,RAAGLQDCTMLVCGDDLV [Peptide 7315],50.0
22,QPGYPWPLYGNEGCGWAG [Peptide 6937],50.0
23,TSTWVLVGGVLAAL (VTSTWVLVGGVLAAL) [Peptide 7729],11.9
24,LASCRRLTDFAQGWGPIS [Peptide 6991],35.7
25,VSTATQTFLATCIN [Peptide 7725],40.5

row,Sequence,% of Mock [%]
1,HINSTALNCNESLNTGWL [Peptide 6986],40.5
2,MYVGGVEHRLEAACNWTR [Peptide 7016],16.7
3,LAALAAYCLSTGCVV [Peptide 7730],21.4
4,HTPVNSWLGNIIMFAPTL [Peptide 7329],47.6
5,SSGADTEDVVCCSMS [Peptide 7740],42.9
6,GVPPLRAWRHRARSVRAR [Peptide 7342],50.0
7,QIVGGVYLLPRRGPRLGV [Peptide 6930],45.2
8,KWEYVVLLFLLLADARVC [Peptide 7028],47.6
9,DAILHTPGCVPCVREGNA [Peptide 6957],21.4
10,GSGLDERPYCWHYPPRPC [Peptide 6994],33.3
11,TDFAQGWGPISYANGSGL [Peptide 6992],31.0
12,DVVCCSMSYSWTGAL [Peptide 7742],23.8
13,PAILSPGALVVGVVCAAI [Peptide 7195],42.9
14,GWAGWLLSPRGSRPSWGP [Peptide 6939],45.2
15,DSSVLCECYDAGCAWYEL [Peptide 7142],40.5
16,AYMNTPGLPVCQDHLEFW [Peptide 7146],40.5
17,WRHRARSVRARLLSRGGR [Peptide 7343],47.6
18,MWNFISGIQYLAGLSTLP [Peptide 7178],42.9
19,TVTESDIRTEEAIYQCCD [Peptide 7304],35.7
20,APTLWARMILMTHFFSVL [Peptide 7331],45.2
21,GNTLTCYIKARAACRAAG [Peptide 7313],45.2
22,EVFWAKHMWNFISGIQYL [Peptide 7177],23.8
23,LPTTQLRRHIDLLVGSAT [Peptide 6962],38.1
24,RHIDLLVGSATLCSALYV [Peptide 6963],31.0

# Same assay, conditions: peptide library screen, approximately 20 μM
row,Sequence,Fold inhibition of HCV infection
1,GSATLCSALYVGDLCGSV [Peptide 5],more than ten-fold
2,WMNSTGFTKVCGAPPCVI [Peptide 7005],five-fold to ten-fold
3,YLYGVGSSIASWAIKWEY [Peptide 11],more than ten-fold
4,GAVYAFYGMWPLLLLLLA [Peptide 7038],five-fold to ten-fold
5,WMMLLISQAEAALENLVI [Peptide 4],more than ten-fold
6,DTEDVVCCSMSYSW [Peptide 7741],more than ten-fold
7,TLVFDITKLLLAIFGPLW [Peptide 6],more than ten-fold
8,TSTWVLVGGVLAAL (VTSTWVLVGGVLAAL) [Peptide 7729],five-fold to ten-fold
9,MYVGGVEHRLEAACNWTR [Peptide 7016],five-fold to ten-fold

# System: HCV
# Experiment: Intracellular HCV RNA by real time RT-QPCR after infection of Huh-7.5.1 cells with and without peptide
# Assay type: cell-based, Hepatitis C virus (JFH-1)
# Conditions: 24 h; 25 μM; Huh-7.5.1 cells, MOI 0.1; normalized to GAPDH
# Method: To accurately quantify the inhibitory effect of the selected peptides on HCV infection, intracellular HCV RNA was measured after infection by real time RT-QPCR with and without peptide treatment. The peptide stock solution was diluted 1:100 and mixed with equal volume of viral supernatant (propagated from day 18 virus preparation post transfection) to a final concentration approximately 20 μM. The virus with peptide or 0.5% DMSO solvent control was then used to infect Huh-7.5.1 cells at a multiplicity of infection (MOI) of 0.1. After an adsorption for 4 hours at 37° C., the inoculum was removed. The cells were washed 2 times, overlaid with 120 μL fresh growth medium and incubated at 37° C. At the indicated time points, total cellular RNA was isolated by the guanidine thiocyanate method. The HCV RNA transcript level was measured by real time RT-QPCR with the primers 5′—
# normalized to cellular GAPDH levels.
# To define the antiviral action of peptide #1 (SEQ ID NO:43), the antiviral activity of a series of N-terminal and C-terminal truncations of peptide 1 was analyzed using the focus reduction assay and by measuring the reduction in intracellular HCV RNA as described.
row,Sequence,HCV RNA fold inhibition 24 h 25 μM [fold]
1,GSATLCSALYVGDLCGSV [Peptide 5],26
2,YLYGVGSSIASWAIKWEY [Peptide 11],9
3,WMMLLISQAEAALENLVI [Peptide 4],27
4,TLVFDITKLLLAIFGPLW [Peptide 6],24

# Same assay, conditions: 24 h; working concentration 18.4-27.5 μM per peptide
row,Sequence,Fold Inhibition on HCV RNA (24 h) [fold]
1,SWLRDIWDWICEVLSD [^C-16mer],9852.6
2,SWLRDIWDWICE [^C-12mer],0.8

# Same assay, conditions: 72 h; 25 μM; Huh-7.5.1 cells, MOI 0.1; normalized to GAPDH
row,Sequence,HCV RNA fold inhibition 72 h 25 μM [fold]
1,GSATLCSALYVGDLCGSV [Peptide 5],27
2,YLYGVGSSIASWAIKWEY [Peptide 11],7
3,WMMLLISQAEAALENLVI [Peptide 4],40
4,TLVFDITKLLLAIFGPLW [Peptide 6],16

# Same assay, conditions: 72 h; working concentration 18.4-27.5 μM per peptide
row,Sequence,Fold Inhibition on HCV RNA (72 h) [fold]
1,SWLRDIWDWICEVLSD [^C-16mer],234207.1
2,SWLRDIWDWICE [^C-12mer],0.5
